Measured values reported in ChEMBL document CHEMBL4190403, “Design, synthesis, and biological evaluation of pyrazole derivatives containing acetamide bond as potential BRAFV600E inhibitors” (Bioorg Med Chem Lett, 2018).
The source made the active and inactive calls. The rule behind the calls is not given here.

Columns and labels:
A-375 [1] = assay: Induction of apoptosis in human A375 cells assessed as early apoptotic cells at 3 uM after 12 hrs by Annexin V-FITC/propidium iodide staining based flow cytometry (reference value: 1.22 to 1.64%); format: functional
A-375 [2] = assay: Induction of apoptosis in human A375 cells assessed as reduction in mitochondrial membrane potential up to 8 uM after 12 hrs using JC-1 staining-based flow cytometry; format: functional, cell-based
A-375 [3] = assay: Cell cycle arrest in human A375 cells assessed as accumulation at G1 phase at 3 uM after 24 hrs by propidium iodide staining-based flow cytometry (reference value: 59.02 to 60.22%); format: functional
A-375 [4] = assay: Cell cycle arrest in human A375 cells assessed as accumulation at G1 phase at 3 uM after 36 hrs by propidium iodide staining-based flow cytometry (reference value: 59.02 to 60.22%); format: functional
A-375 [5] = assay: Induction of apoptosis in human A375 cells assessed as late apoptotic cells at 1 uM after 24 hrs by Annexin V-FITC/propidium iodide staining based flow cytometry (reference value: 3.80 to 4.61%); format: functional
A-375 [6] = assay: Cell cycle arrest in human A375 cells assessed as accumulation at S phase at 1 uM after 24 hrs by propidium iodide staining-based flow cytometry (reference value: 20.08 to 31.09%); format: functional
A-375 [7] = assay: Cell cycle arrest in human A375 cells assessed as accumulation at G1 phase at 10 uM after 24 hrs by propidium iodide staining-based flow cytometry (reference value: 59.02 to 60.22%); format: functional
A-375 [8] = assay: Cell cycle arrest in human A375 cells assessed as accumulation at S phase at 3 uM after 12 hrs by propidium iodide staining-based flow cytometry (reference value: 20.08 to 31.09%); format: functional
[9] = molecular target: Serine/threonine-protein kinase B-raf (Mus musculus, UniProt P28028, V600E); assay: Inhibition of full-length GST-tagged mouse BRAF V600E mutant using recombinant human full length N-terminal His-tagged MEK1 as substrate preincubated for 1 hr followed by substrate addition measured after 25 mins by Nu-page gel-based phosphor screen analysis
A-375 [10] = assay: Cell cycle arrest in human A375 cells assessed as accumulation at G2/M phase at 10 uM after 24 hrs by propidium iodide staining-based flow cytometry (reference value: 7.91 to 21.07%); format: functional
A-375 [11] = assay: Induction of apoptosis in human A375 cells assessed as early apoptotic cells at 10 uM after 24 hrs by Annexin V-FITC/propidium iodide staining based flow cytometry (reference value: 1.22 to 1.64%); format: functional
A-375 [12] = assay: Induction of apoptosis in human A375 cells assessed as viable cells at 3 uM after 12 hrs by Annexin V-FITC/propidium iodide staining based flow cytometry (reference value: 90.6 to 94.3%); format: functional; settings: A-375, 12 h, read-out: Activity
A-375 [13] = assay: Induction of apoptosis in human A375 cells at 3 uM by Annexin V-FITC/propidium iodide staining based flow cytometry; format: functional, cell-based; settings: TDE = time-dependent effect
A-375 [14] = assay: Induction of apoptosis in human A375 cells assessed as necrotic cells at 3 uM after 24 hrs by Annexin V-FITC/propidium iodide staining based flow cytometry (reference value: 0.635 to 3.12%); format: functional
A-375 [15] = assay: Induction of apoptosis in human A375 cells assessed as early apoptotic cells at 3 uM after 24 hrs by Annexin V-FITC/propidium iodide staining based flow cytometry (reference value: 1.22 to 1.64%); format: functional
A-375 [16] = assay: Cell cycle arrest in human A375 cells assessed as accumulation at G2/M phase at 3 uM after 24 hrs by propidium iodide staining-based flow cytometry (reference value: 7.91 to 21.07%); format: functional
A-375 [17] = assay: Induction of apoptosis in human A375 cells assessed as viable cells at 3 uM after 36 hrs by Annexin V-FITC/propidium iodide staining based flow cytometry (reference value: 90.6 to 94.3%); format: functional; settings: A-375, 36 h, read-out: Activity
A-375 [18] = assay: Induction of apoptosis in human A375 cells assessed as necrotic cells at 1 uM after 24 hrs by Annexin V-FITC/propidium iodide staining based flow cytometry (reference value: 0.635 to 3.12%); format: functional
A-375 [19] = assay: Cell cycle arrest in human A375 cells assessed as accumulation at G2/M phase at 1 uM after 24 hrs by propidium iodide staining-based flow cytometry (reference value: 7.91 to 21.07%); format: functional
A-375 [20] = assay: Cell cycle arrest in human A375 cells assessed as accumulation at S phase at 3 uM after 24 hrs by propidium iodide staining-based flow cytometry (reference value: 20.08 to 31.09%); format: functional
A-375 [21] = assay: Cell cycle arrest in human A375 cells assessed as accumulation at S phase at 3 uM after 36 hrs by propidium iodide staining-based flow cytometry (reference value: 20.08 to 31.09%); format: functional
A-375 [22] = assay: Cell cycle arrest in human A375 cells assessed as accumulation at G2/M phase at 3 uM after 36 hrs by propidium iodide staining-based flow cytometry (reference value: 7.91 to 21.07%); format: functional
A-375 [23] = assay: Induction of apoptosis in human A375 cells assessed as early apoptotic cells at 3 uM after 36 hrs by Annexin V-FITC/propidium iodide staining based flow cytometry (reference value: 1.22 to 1.64%); format: functional
A-375 [24] = assay: Induction of apoptosis in human A375 cells assessed as late apoptotic cells at 3 uM after 24 hrs by Annexin V-FITC/propidium iodide staining based flow cytometry (reference value: 3.80 to 4.61%); format: functional
A-375 [25] = assay: Antiproliferative activity against human A375 cells harboring BRAF V600E mutant after 24 hrs by MTT assay; format: functional, cell-based; settings: A-375, 24 h
A-375 [26] = assay: Cell cycle arrest in human A375 cells assessed as accumulation at S phase at 10 uM after 24 hrs by propidium iodide staining-based flow cytometry (reference value: 20.08 to 31.09%); format: functional
A-375 [27] = assay: Induction of apoptosis in human A375 cells assessed as late apoptotic cells at 3 uM after 36 hrs by Annexin V-FITC/propidium iodide staining based flow cytometry (reference value: 3.80 to 4.61%); format: functional
A-375 [28] = assay: Cell cycle arrest in human A375 cells assessed as accumulation at G2/M phase at 3 uM after 12 hrs by propidium iodide staining-based flow cytometry (reference value: 7.91 to 21.07%); format: functional
A-375 [29] = assay: Cell cycle arrest in human A375 cells assessed as accumulation at G1 phase at 3 uM after 12 hrs by propidium iodide staining-based flow cytometry (reference value: 59.02 to 60.22%); format: functional
[30] = Antiproliferative activity against human WM1361 cells harboring wild-type BRAF after 48 hrs by MTT assay; format: functional, cell-based; settings: WM1361, 48 h
A-375 [31] = assay: Cell cycle arrest in human A375 cells assessed as accumulation at G1 phase at 1 uM after 24 hrs by propidium iodide staining-based flow cytometry (reference value: 59.02 to 60.22%); format: functional
A-375 [32] = assay: Induction of apoptosis in human A375 cells assessed as early apoptotic cells at 1 uM after 24 hrs by Annexin V-FITC/propidium iodide staining based flow cytometry (reference value: 1.22 to 1.64%); format: functional

Serine/threonine-protein kinase B-raf, sequence (P28028 whole entry, looked up, stated change not applied): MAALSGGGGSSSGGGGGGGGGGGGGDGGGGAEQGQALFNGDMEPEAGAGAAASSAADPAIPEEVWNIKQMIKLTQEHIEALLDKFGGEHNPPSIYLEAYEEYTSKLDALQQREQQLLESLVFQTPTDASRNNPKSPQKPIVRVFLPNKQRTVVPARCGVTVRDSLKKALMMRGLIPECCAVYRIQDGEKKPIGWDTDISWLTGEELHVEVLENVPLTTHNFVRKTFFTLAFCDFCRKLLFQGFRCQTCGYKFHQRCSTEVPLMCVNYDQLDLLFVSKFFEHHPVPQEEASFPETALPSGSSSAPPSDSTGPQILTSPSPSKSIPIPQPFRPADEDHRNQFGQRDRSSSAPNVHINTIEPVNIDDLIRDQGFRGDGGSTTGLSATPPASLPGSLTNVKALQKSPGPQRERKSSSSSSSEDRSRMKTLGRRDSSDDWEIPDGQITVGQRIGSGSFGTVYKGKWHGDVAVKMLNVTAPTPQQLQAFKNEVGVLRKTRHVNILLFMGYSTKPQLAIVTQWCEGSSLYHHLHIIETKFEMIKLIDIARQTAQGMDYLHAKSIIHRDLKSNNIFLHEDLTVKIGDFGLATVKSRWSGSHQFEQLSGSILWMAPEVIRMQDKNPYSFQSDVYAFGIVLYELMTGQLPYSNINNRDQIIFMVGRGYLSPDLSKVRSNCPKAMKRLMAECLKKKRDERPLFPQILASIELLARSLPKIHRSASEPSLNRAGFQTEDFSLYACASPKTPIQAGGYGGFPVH

COc1ccc(-n2cc(NC(=O)Cn3ccc(-c4cccc(Cl)c4)n3)cn2)cc1
Activity (A-375 [1]): 5.22% | Activity (A-375 [2]): Active | Activity (A-375 [3]): 40.19 - 43.48% | Activity (A-375 [4]): 35.56% | Activity (A-375 [5]): 14.1% | Activity (A-375 [6]): 29.07% | Activity (A-375 [7]): 39.32% | Activity (A-375 [8]): 35.98% | IC50 [9]: 100 nM | Activity (A-375 [10]): 10.95% | Activity (A-375 [11]): 1.81% | viability at 3 µM (A-375 [12]): 65.3% | Activity (A-375 [13]): Tde | Activity (A-375 [14]): 2.89 - 4.99% | Activity (A-375 [15]): 3.01 - 3.25% | Activity (A-375 [16]): 9.69 - 9.82% | viability at 3 µM (A-375 [17]): 32.8% | Activity (A-375 [18]): 4.51% | Activity (A-375 [19]): 15.89% | Activity (A-375 [20]): 43.96 - 45.74% | Activity (A-375 [21]): 52.38% | Activity (A-375 [22]): 10.06% | Activity (A-375 [23]): 1.95% | Activity (A-375 [24]): 19.1 - 29.2% | IC50 (A-375 [25]): 960 nM | Activity (A-375 [26]): 47.03% | Activity (A-375 [27]): 59.7% | Activity (A-375 [28]): 11.44% | Activity (A-375 [29]): 51.08% | IC50 [30]: 10200 nM | Activity (A-375 [31]): 50.93% | Activity (A-375 [32]): 1.92%
